How the values were obtained:
[1] = tested on: Human immunodeficiency virus; assay: Antiviral activity against pseudo Human immunodeficiency virus infected in HEK293T cells after 2 days in presence of human serum albumin; type: functional, organism-based; details: Human immunodeficiency virus 1, HEK-293T, 48 h
[2] = tested on: Human immunodeficiency virus; assay: Antiviral activity against Human immunodeficiency virus harboring integrase Q148K mutant infected in human HeLa cells expressing CD4 after 2 days by beta galactosidase assay relative to wild type HIV; type: functional
[3] = tested on: Human immunodeficiency virus; assay: Antiviral activity against pseudo Human immunodeficiency virus infected in HEK293T cells after 2 days; type: functional, organism-based; details: Human immunodeficiency virus 1, HEK-293T, 48 h
[4] = tested on: Human immunodeficiency virus; assay: Ratio of IC50 for pseudo Human immunodeficiency virus to IC50 for pseudo Human immunodeficiency virus in presence of human serum albumin; type: functional
[5] = Oral bioavailability in rat; type: ADME, organism-based; details: in vivo
[6] = Clearance in iv dosed rat; type: ADME, organism-based; details: in vivo
[7] = target: Human immunodeficiency virus type 1 integrase (Human immunodeficiency virus 1, UniProt Q7ZJM1); assay: Inhibition of HIV-1 integrase strand transfer activity using [3H]-DNA as substrate preincubated for 60 mins prior to substrate addition measured after 25 to 45 mins
[8] = tested on: Human immunodeficiency virus 1; assay: Antiviral activity against Human immunodeficiency virus 1 3B infected in human MT4 cells after 4 to 5 days by bioluminescence assay in presence of human serum relative to control; type: functional
[9] = tested on: Human immunodeficiency virus 1; assay: Antiviral activity against Human immunodeficiency virus 1 3B infected in human MT4 cells after 4 to 5 days by bioluminescence assay; type: functional, organism-based
[10] = tested on: Human immunodeficiency virus 1; assay: Antiviral activity against Human immunodeficiency virus 1 Ba-L infected human PBMC after 7 days by [methyl-3H]dTTP incorporation assay; type: functional, organism-based; details: 168 h

Sequence of Human immunodeficiency virus type 1 integrase (Q7ZJM1 whole entry): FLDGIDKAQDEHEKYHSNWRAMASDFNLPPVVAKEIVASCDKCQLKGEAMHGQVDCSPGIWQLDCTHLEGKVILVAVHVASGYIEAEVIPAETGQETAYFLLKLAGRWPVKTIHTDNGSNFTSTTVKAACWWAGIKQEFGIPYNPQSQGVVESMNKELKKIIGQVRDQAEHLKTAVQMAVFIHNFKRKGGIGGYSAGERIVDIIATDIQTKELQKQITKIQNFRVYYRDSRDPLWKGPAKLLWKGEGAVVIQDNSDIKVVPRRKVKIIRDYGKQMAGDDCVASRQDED

Structure (SMILES) | IC50 [1] [nM] | fold change (FC) [2] | IC50 [3] [nM] | further results
O=C(NCc1ccc(F)cc1F)c1cn2c(c(O)c1=O)C(=O)N1[C@H](Cc3ccccc3)CO[C@H]1C2 | 4.5 | 19 | 0.6 | Ratio IC50 [4]: >7
O=C(NCc1ccc(F)cc1F)c1cn2c(c(O)c1=O)C(=O)N1[C@@H](Cc3ccc(O)cc3)CO[C@@H]1C2 | 22 | 1.6 | 2.1 | 
O=C(NCc1ccc(F)cc1F)c1cn2c(c(O)c1=O)C(=O)N1[C@@H](Cc3c[nH]c4ccccc34)CO[C@@H]1C2 | 71 | 22 | 1.6 | 
O=C(NCc1ccc(F)cc1)c1cn2c(c(O)c1=O)C(=O)N1CCCO[C@H]1C2 | 81 | 2.4 | 1.9 | bioavailability [5]: 79%; clearance [6]: 0.1 mL/min/kg; Ratio IC50 [4]: 43
O=C(NCc1ccc(F)cc1)c1cn2c(c(O)c1=O)C(=O)N1CCCO[C@@H]1C2 | 9.4 | 11 | 2.2 | bioavailability [5]: 52%; clearance [6]: 0.17 mL/min/kg
C[C@@H]1CCN2C(=O)c3c(O)c(=O)c(C(=O)NCc4ccc(F)cc4)cn3C[C@@H]2O1 | 25 |  | 2.1 | IC50 [7]: 5 nM; Ratio IC50 [4]: 12
C[C@H]1CCN2C(=O)c3c(O)c(=O)c(C(=O)NCc4ccc(F)cc4)cn3C[C@H]2O1 | 3.3 |  | 1.3 | 
C[C@@H]1CCN2C(=O)c3c(O)c(=O)c(C(=O)NCc4ccc(F)cc4F)cn3C[C@@H]2O1 | 7 | 2.1 | 0.9 | 
C[C@H]1CCN2C(=O)c3c(O)c(=O)c(C(=O)NCc4ccc(F)cc4F)cn3C[C@H]2O1 | 1.5 | 2.8 | 0.5 | 
CC[C@@H]1CCN2C(=O)c3c(O)c(=O)c(C(=O)NCc4ccc(F)cc4F)cn3C[C@@H]2O1 | 9.4 | 4.6 | 0.7 | 
CC[C@H]1CCN2C(=O)c3c(O)c(=O)c(C(=O)NCc4ccc(F)cc4F)cn3C[C@H]2O1 | 3.1 | 2.2 | 0.5 | 
CC(C)[C@@H]1CCN2C(=O)c3c(O)c(=O)c(C(=O)NCc4ccc(F)cc4F)cn3C[C@@H]2O1 | 20 | 8.1 | 2 | 
CC(C)[C@H]1CCN2C(=O)c3c(O)c(=O)c(C(=O)NCc4ccc(F)cc4F)cn3C[C@H]2O1 | 4.1 | 1.9 | 0.7 | 
COC[C@@H]1CCN2C(=O)c3c(O)c(=O)c(C(=O)NCc4ccc(F)cc4F)cn3C[C@@H]2O1 | 2.3 | 5 | 1.4 | Ratio IC50 [4]: 2
COC[C@H]1CCN2C(=O)c3c(O)c(=O)c(C(=O)NCc4ccc(F)cc4F)cn3C[C@H]2O1 | 0.9 | 3.5 | 0.4 | Ratio IC50 [4]: 2
O=C(NCc1ccc(F)cc1F)c1cn2c(c(O)c1=O)C(=O)N1CC[C@@H](c3ccccc3)O[C@H]1C2 | 50 | 8.5 | 5.6 | 
C[C@@H]1CO[C@H]2Cn3cc(C(=O)NCc4ccc(F)cc4)c(=O)c(O)c3C(=O)N2C1 | 210 | 36 | 0.8 | 
C[C@H]1CO[C@@H]2Cn3cc(C(=O)NCc4ccc(F)cc4)c(=O)c(O)c3C(=O)N2C1 | 5.6 | 9.9 | 0.7 | 
C[C@H]1CO[C@@H]2Cn3cc(C(=O)NCc4ccc(F)cc4F)c(=O)c(O)c3C(=O)N2C1 | 5.2 | 5.7 | 0.5 | 
CC1(C)CO[C@@H]2Cn3cc(C(=O)NCc4ccc(F)cc4)c(=O)c(O)c3C(=O)N2C1 | 7.9 | 8.1 | 2 | 
CC1(C)CO[C@H]2Cn3cc(C(=O)NCc4ccc(F)cc4)c(=O)c(O)c3C(=O)N2C1 | 440 | 3.6 | 1.1 | 

Structure (SMILES) | IC50 [1] [nM] | fold change (FC) [2] | IC50 [3] [nM] | further results
C[C@H]1CCO[C@@H]2Cn3cc(C(=O)NCc4ccc(F)cc4F)c(=O)c(O)c3C(=O)N12 | 4 | 2.2 | 0.5 | 
C[C@H]1CO[C@@H]2Cn3cc(C(=O)NCc4ccc(F)cc4)c(=O)c(O)c3C(=O)N12 | 50 | 13 | 2.1 | 
C[C@@H]1CO[C@H]2Cn3cc(C(=O)NCc4ccc(F)cc4F)c(=O)c(O)c3C(=O)N12 | 39 | 35 | 5.4 | Ratio IC50 [4]: >7
CC[C@H]1CO[C@@H]2Cn3cc(C(=O)NCc4ccc(F)cc4F)c(=O)c(O)c3C(=O)N12 | 63 |  | 0.9 | 
CC[C@@H]1CO[C@H]2Cn3cc(C(=O)NCc4ccc(F)cc4F)c(=O)c(O)c3C(=O)N12 | 35 | 63 | 8.5 | 
CC(C)[C@H]1CO[C@@H]2Cn3cc(C(=O)NCc4ccc(F)cc4F)c(=O)c(O)c3C(=O)N12 | 300 | 100 | 4.8 | 
CC(C)[C@@H]1CO[C@H]2Cn3cc(C(=O)NCc4ccc(F)cc4F)c(=O)c(O)c3C(=O)N21 | 16 | 73 | 4 | 
CC[C@H](C)[C@H]1CO[C@@H]2Cn3cc(C(=O)NCc4ccc(F)cc4F)c(=O)c(O)c3C(=O)N12 | 200 | 200 | 20 | 
CC(C)(C)[C@H]1CO[C@@H]2Cn3cc(C(=O)NCc4ccc(F)cc4)c(=O)c(O)c3C(=O)N21 | 35 | 74 | 4 | 
CC(C)(C)[C@H]1CO[C@@H]2Cn3cc(C(=O)NCc4ccc(F)cc4F)c(=O)c(O)c3C(=O)N21 | 130 | 130 | 20 | 
CC(C)C[C@@H]1CO[C@H]2Cn3cc(C(=O)NCc4ccc(F)cc4F)c(=O)c(O)c3C(=O)N12 | 16 | 51 | 3.2 | 
CCCC[C@H]1CO[C@@H]2Cn3cc(C(=O)NCc4ccc(F)cc4F)c(=O)c(O)c3C(=O)N12 | 1800 | >57 | 87 | 
O=C(NCc1ccc(F)cc1F)c1cn2c(c(O)c1=O)C(=O)N1[C@@H](CC3CCCCC3)CO[C@@H]1C2 | 3100 | >15 | 330 | 
O=C(NCc1ccc(F)cc1F)c1cn2c(c(O)c1=O)C(=O)N1[C@@H](CO)CO[C@@H]1C2 | 37 | 12 | 10 | 
CSCC[C@H]1CO[C@@H]2Cn3cc(C(=O)NCc4ccc(F)cc4F)c(=O)c(O)c3C(=O)N12 | 18 |  | 3.1 | 
CS(=O)(=O)CC[C@H]1CO[C@@H]2Cn3cc(C(=O)NCc4ccc(F)cc4F)c(=O)c(O)c3C(=O)N12 | 370 | >10 | 430 | 
O=C(NCc1ccc(F)cc1F)c1cn2c(c(O)c1=O)C(=O)N1[C@@H](c3ccccc3)CO[C@@H]1C2 | 620 | 44 | 72 | 
O=C(NCc1ccc(F)cc1F)c1cn2c(c(O)c1=O)C(=O)N1[C@@H](Cc3ccccc3)CO[C@@H]1C2 | 380 | 13 | 13 | 
O=C(NCc1ccc(F)cc1)c1cn2c(c(O)c1=O)C(=O)N1CCCOC1C2 (racemic) | 20 | 2.8 | 1.9 | bioavailability [5]: 51%; clearance [6]: 0.1 mL/min/kg
C[C@@H]1CCO[C@H]2Cn3cc(C(=O)NCc4ccc(F)cc4F)c(=O)c(O)c3C(=O)N12 [DOLUTEGRAVIR] | 22 | 0.4 | 1.7 | fold change (FC) [8]: 75; IC50 [9]: 2 nM; IC90 [1]: 0.0374 µg/mL; IC50 [10]: 0.5 nM
Cc1nnc(C(=O)NC(C)(C)c2nc(C(=O)NCc3ccc(F)cc3)c([O-])c(=O)n2C)o1.[K+] [RALTEGRAVIR POTASSIUM] | 7.1 | 79 | 2 | Ratio IC50 [4]: 77

Reference: ChEMBL document CHEMBL2401737 (J Med Chem, 2013)
